In paper PMC11995724, “Antibiotic target discovery by integrated phenotypic and activity-based profiling of electrophilic fragments” (Cell chemical biology, 2025):

Assay: in vitro
Settings: human, hek293t cells

| SMILES | viability at 48 h, 25 µM |
| --- | --- |
| CCCc1ccc(C(=O)CCl)cc1 [10-C04, 2-chloro-1-(4-propylphenyl)ethan-1-one] | 54.6% |
| NC(=O)c1coc(C(=O)CCl)c1 [10-C05, 5-(2-chloroacetyl)furan-3-carboxamide] | 60.9% |
| Cc1ccc(-n2c(C)cc(C(=O)CCl)c2C)cc1F [10-C06, 2-chloro-1-[1-(3-fluoro-4-methylphenyl)-2,5-dimethyl-1H-pyrrol-3-yl]ethan-1-one] | 0.213% |
| C=CS(=O)(=O)Nc1ccccc1 [10-C07, N-phenylethene-1-sulfonamide] | 30.8% |
| Cc1cc(C)c(C(=O)CCl)c(C)c1 [10-C08, 2-chloro-1-(2,4,6-trimethylphenyl)ethan-1-one] | 97.8% |
| O=C(CCl)c1cn(-c2cccc(C(F)(F)F)c2)nn1 [10-C09, 2-chloro-1-{1-[3-(trifluoromethyl)phenyl]-1H-1,2,3-triazol-4-yl}ethan-1-one] | 2.55% |
| CCOC(=O)c1c(C)[nH]c(C)c1C(=O)CCl [10-C10, ethyl 4-(2-chloroacetyl)-2,5-dimethyl-1H-pyrrole-3-carboxylate] | 101% |
| O=C(CCl)Cc1cccc(F)c1 [10-C11, 1-chloro-3-(3-fluorophenyl)propan-2-one] | 38.4% |
| CCc1cccc2c(C(=O)CCl)c[nH]c12 [10-C12, 2-chloro-1-(7-ethyl-1H-indol-3-yl)ethan-1-one] | 0.148% |
| O=C(CCl)c1ccc(O)cc1O [10-C14, 2-chloro-1-(2,4-dihydroxyphenyl)ethan-1-one] | 97.4% |
| Cn1ccnc1C(=O)CCl [10-C15, 2-chloro-1-(1-methyl-1H-imidazol-2-yl)ethan-1-one] | 67.6% |
| Cc1cc(C(=O)CCl)c(C)n1-c1ccccn1 [10-C16, 2-chloro-1-[2,5-dimethyl-1-(pyridin-2-yl)-1H-pyrrol-3-yl]ethan-1-one] | 79.6% |
| O=C(CCl)C1CCC2(CC1)CC2 [10-C17, 2-chloro-1-{spiro[2.5]octan-6-yl}ethan-1-one] | 60.1% |
| Cc1cc(-n2c(C)cc(C(=O)CCl)c2C)no1 [10-C18, 2-chloro-1-[2,5-dimethyl-1-(5-methyl-1,2-oxazol-3-yl)-1H-pyrrol-3-yl]ethan-1-one] | 0.308% |
| O=C(CCl)Cc1ccc(C(F)(F)F)cc1 [10-C19, 1-chloro-3-[4-(trifluoromethyl)phenyl]propan-2-one] | 1.02% |
| N#CC(C(=O)CCl)=C(c1ccc(F)cc1)N1CCOCC1 [10-C20, 4-chloro-2-[(4-fluorophenyl)(morpholin-4-yl)methylidene]-3-oxobutanenitrile] | 53.6% |
| O=C1C=CC(=O)N1CCc1ccc(F)cc1 [10-C21, 1-[2-(4-fluorophenyl)ethyl]-2,5-dihydro-1H-pyrrole-2,5-dione] | 21.9% |
| CCC(=O)N1CCc2cc(C(=O)CCl)ccc21 [10-C22, 1-[5-(2-chloroacetyl)-2,3-dihydro-1H-indol-1-yl]propan-1-one] | 90.5% |
| Cc1cc(C(=O)CCl)c(C)n1Cc1cccs1 [10-D03, 2-chloro-1-{2,5-dimethyl-1-[(thiophen-2-yl)methyl]-1H-pyrrol-3-yl}ethan-1-one] | 104% |
| CC(C)C(=O)Nc1ccc(C(=O)CCl)cc1 [10-D04, N-[4-(2-chloroacetyl)phenyl]-2-methylpropanamide] | 30.8% |
| COC(=O)c1ccc2[nH]cc(C(=O)CCl)c2c1 [10-D05, methyl 3-(2-chloroacetyl)-1H-indole-5-carboxylate] | 3.01% |

| SMILES | viability at 48 h, 25 µM |
| --- | --- |
| CS(=O)(=O)NCCc1ccc(C(=O)CCl)cc1 [10-D06, N-{2-[4-(2-chloroacetyl)phenyl]ethyl}methanesulfonamide] | 18.3% |
| O=C1C=CC(=O)N1c1ccc2ccccc2c1 [10-D07, 1-(naphthalen-2-yl)-2,5-dihydro-1H-pyrrole-2,5-dione] | 74.4% |
| Cn1ccc(C(=O)CCl)c1 [10-D08, 2-chloro-1-(1-methyl-1H-pyrrol-3-yl)ethan-1-one] | 1.8% |
| CC(=O)Nc1cccc(N2C(=O)C=CC2=O)c1 [10-D09, N-[3-(2,5-dioxo-2,5-dihydro-1H-pyrrol-1-yl)phenyl]acetamide] | 104% |
| COc1ccc(C(=O)CCl)cc1Cl [10-D10, 2-chloro-1-(3-chloro-4-methoxyphenyl)ethan-1-one] | 1.84% |
| COc1ccc(S(=O)(=O)N2CCSSCC2)cc1C [10-D11, 5-(4-methoxy-3-methylbenzenesulfonyl)-1,2,5-dithiazepane] | 105% |
| Cc1csc(C(C#N)C(=O)CCl)n1 (stereo not drawn) [10-D12, 4-chloro-2-(4-methyl-1,3-thiazol-2-yl)-3-oxobutanenitrile] | 6.6% |
| COCCn1c(C)cc(C(=O)CCl)c1C [10-D13, 2-chloro-1-[1-(2-methoxyethyl)-2,5-dimethyl-1H-pyrrol-3-yl]ethan-1-one] | 110% |
| CC(Cl)C(=O)c1ccc(C(C)(C)C)cc1 (stereo not drawn) [10-D14, 1-(4-tert-butylphenyl)-2-chloropropan-1-one] | 77.6% |
| O=C1C=CC(=O)N1c1ccc(F)c(Cl)c1 [10-D15, 1-(3-chloro-4-fluorophenyl)-2,5-dihydro-1H-pyrrole-2,5-dione] | 79.2% |
| O=C(CCl)c1cc(Cl)sc1Cl [10-D16, 2-chloro-1-(2,5-dichlorothiophen-3-yl)ethan-1-one] | 1.77% |
| O=C1C=CC(=O)N1c1ccccc1F [10-D17, 1-(2-fluorophenyl)-2,5-dihydro-1H-pyrrole-2,5-dione] | 90.3% |
| Cc1cc(C(=O)CCl)c(C)n1-c1ccc(Cl)c(Cl)c1 [10-D18, 2-chloro-1-[1-(3,4-dichlorophenyl)-2,5-dimethyl-1H-pyrrol-3-yl]ethan-1-one] | 0.282% |
| CS(=O)(=O)Nc1ccc(C(=O)CCl)cc1 [10-D19, N-[4-(2-chloroacetyl)phenyl]methanesulfonamide] | 76.6% |
| O=C(CCl)Cc1c(F)cccc1Cl [10-D20, 1-chloro-3-(2-chloro-6-fluorophenyl)propan-2-one] | 37% |
| O=C(Nc1ccc(F)cc1)N1CCSSCC1 [10-D21, N-(4-fluorophenyl)-1,2,5-dithiazepane-5-carboxamide] | 84% |
| COC(=O)c1c(C)[nH]c(C(=O)C(C)Cl)c1C (stereo not drawn) [10-D22, methyl 5-(2-chloropropanoyl)-2,4-dimethyl-1H-pyrrole-3-carboxylate] | 83.7% |
| CC(C)Oc1ccc2[nH]cc(C(=O)CCl)c2c1 [10-E03, 2-chloro-1-[5-(propan-2-yloxy)-1H-indol-3-yl]ethan-1-one] | 0.825% |
| Cc1cc(C)cc(-n2c(C)cc(C(=O)CCl)c2C)c1 [10-E04, 2-chloro-1-[1-(3,5-dimethylphenyl)-2,5-dimethyl-1H-pyrrol-3-yl]ethan-1-one] | 19.1% |
| O=C(CCl)c1c(-c2ccccc2)[nH]c2ccccc12 [10-E05, 2-chloro-1-(2-phenyl-1H-indol-3-yl)ethan-1-one] | 14.1% |
| Cc1cc(C(=O)C(C)Cl)c(C)n1Cc1ccco1 (stereo not drawn) [10-E06, 2-chloro-1-{1-[(furan-2-yl)methyl]-2,5-dimethyl-1H-pyrrol-3-yl}propan-1-one] | 105% |
